Assay results: patent EP1568368A1, “Pharmaceutical combination comprising a CDK inhibitor and a VEGF receptor inhibitor” (Schering Aktiengesellschaft, priority 2004, dated 2005)

Test system: MaTu estrogen-independent human mammary carcinoma cells
Experiment: MaTu human estrogen-independent mammary carcinoma xenograft model, tumor growth inhibition (tumor area by caliper)
Assay type: in vivo, NMRI nude mice
Parameters: inhibition of the growth of the MaTu xenograft model: dose or concentration left out as unconfirmed
Details: monotherapy
Experimental: MaTu (EPO-GmbH, Berlin) estrogen-independent human mammary carcinoma cells, obtained from cell culture, were implanted s.c. in the inguinal region of femal NMRI nude mice. Treatment was started when the tumors were approximately 20 mm^2 in size. The groups were closed when the tumors within a treatment group reached a size of approximately 100 mm^2.
Experimental groups included the following: • 1) Control vehicle • 2) a CDK inhibitor ([…]) • 3) a VEGF-R inhibitor (50 mg/kg, p.o. twice daily, d4-d21) • 4) a CDK inhibitor ([…]) in combination with a VEGF-R inhibitor (50 mg/kg, p.o. twice daily, d4-d21) CDK inhibitor = N-[5-[[[5-(1,1-dimethylethyl)-2-oxazolyl] methyl]thio]-2-thiazolyl]-4-piperidinecarboxamide VEGF-R inhibitor = (4-Chlorophenyl)[4-(4-pyridylmethyl)phthalazin-1-yl]ammonium hydrogen succinate
Tumor area was determined by caliper measurement twice weekly. The example was designed to determine the initial response of a human estrogen-independent mammary carcinoma xenograft model to treatment with a specific CDK inhibitor, to treatment with a specific VEGF-R inhibitor, and to treatment with a combination of a CDK inhibitor together with a VEGF-R inhibitor. The tumor growth inhibiting effect of the compounds was investigated in the MaTu human estrogen-independent mammary carcinoma model, xenografted in NMRI nude mice. […]

CC(C)(C)c1cnc(CSc2cnc(NC(=O)C3CCNCC3)s2)o1 [CDK inhibitor, N-[5-[[[5-(1,1-dimethylethyl)-2-oxazolyl]methyl]thio]-2-thiazolyl]-4-piperidinecarboxamide]
inhibition of the growth of the MaTu xenograft model (i.p. once daily, d4-d21, s.c. xenograft in female NMRI nude mice): ineffective

Clc1ccc(Nc2nnc(Cc3ccncc3)c3ccccc23)cc1.O=C(O)CCC(=O)O [VEGF-R inhibitor, (4-Chlorophenyl)[4-(4-pyridylmethyl)phthalazin-1-yl]ammonium hydrogen succinate]
inhibition of tumor growth (50 mg/kg p.o. twice daily, d4-d21, s.c. MaTu xenograft in female NMRI nude mice): initially an inhibition of tumor growth
